Data on 21 molecules can be found in patent US7994185B2, “Benzene sulfonamide thiazole and oxazole compounds” (Glaxo Smith Kline LLC, priority 2008, dated 2011).

Where two headings read alike, the source gives them in different places.

The target in assay [1] is T1, BRAFV600E full-length (amino acids 2-766) (Homo sapiens, UniProt P15056, V600E).
T1 construct: His6-tagged BRAFV600E full-length (amino acids 2-766); His6; made in house; host or cells: baculovirus expression system (insect cells)
The assay can be described thus: B-Raf Accelerated MEK ATPase assay (BRAMA). It counts as biochemical. Particulars: categorized. In outline:
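Coupled-enzyme readout: ADP generated by MEK-mediated ATP hydrolysis, uncoupled from ERK phosphorylation, is linked to NADH oxidation through pyruvate kinase and lactate dehydrogenase.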

The test system of assay [2] is Human colon tumor cells (Colo205). The assay can be described thus: Cell growth inhibition assay (CellTiter-Glo), Colo205. It counts as cell-based. In outline: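 Luminescent ATP read-out (CellTiter-Glo) served as a proxy for cell number; percent growth inhibition was calculated against DMSO vehicle wells. Cells were treated for 3 days at 37 °C with serially diluted compound, 0.2% DMSO final.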
On the technique in general: Cellular ATP, detected with luciferase, serves as a proxy for viable cell number.

The subject of assay [3] is Human melanoma cancer cells (SK-MEL-28). In words: Cell growth inhibition assay (CellTiter-Glo), SK-MEL-28. It counts as cell-based.
Where [4] appears, read: B-Raf Activity, Table 1a, highest pIC50 for the one or more runs.
Where [5] appears, read: B-Raf pIC50, Table 1b, later runs, average pIC50 for the one or more runs.
Where [6] appears, read: COLO 205, 72 h, Table 2a, 3 days incubation, read-out: Activity in Colo205 Tumor Cells.
Where [7] appears, read: COLO 205, Table 2b, later runs, average for the one or more runs, categorized, read-out: IC50 for Colo205.
The mark [8] stands for this setting: SK-MEL-28, 72 h, Table 3a, 3 days incubation, read-out: Activity in SK-MEL-28 Tumor Cells.
The mark [9] stands for this setting: SK-MEL-28, Table 3b, later runs, average for the one or more runs, categorized, read-out: IC50 for SK-MEL-28.
The mark [10] stands for this setting: Table 1b, later runs, average pIC50 for the one or more runs, read-out: B-Raf pIC50 (converted).

T1 sequence (P15056 2-766 V600E): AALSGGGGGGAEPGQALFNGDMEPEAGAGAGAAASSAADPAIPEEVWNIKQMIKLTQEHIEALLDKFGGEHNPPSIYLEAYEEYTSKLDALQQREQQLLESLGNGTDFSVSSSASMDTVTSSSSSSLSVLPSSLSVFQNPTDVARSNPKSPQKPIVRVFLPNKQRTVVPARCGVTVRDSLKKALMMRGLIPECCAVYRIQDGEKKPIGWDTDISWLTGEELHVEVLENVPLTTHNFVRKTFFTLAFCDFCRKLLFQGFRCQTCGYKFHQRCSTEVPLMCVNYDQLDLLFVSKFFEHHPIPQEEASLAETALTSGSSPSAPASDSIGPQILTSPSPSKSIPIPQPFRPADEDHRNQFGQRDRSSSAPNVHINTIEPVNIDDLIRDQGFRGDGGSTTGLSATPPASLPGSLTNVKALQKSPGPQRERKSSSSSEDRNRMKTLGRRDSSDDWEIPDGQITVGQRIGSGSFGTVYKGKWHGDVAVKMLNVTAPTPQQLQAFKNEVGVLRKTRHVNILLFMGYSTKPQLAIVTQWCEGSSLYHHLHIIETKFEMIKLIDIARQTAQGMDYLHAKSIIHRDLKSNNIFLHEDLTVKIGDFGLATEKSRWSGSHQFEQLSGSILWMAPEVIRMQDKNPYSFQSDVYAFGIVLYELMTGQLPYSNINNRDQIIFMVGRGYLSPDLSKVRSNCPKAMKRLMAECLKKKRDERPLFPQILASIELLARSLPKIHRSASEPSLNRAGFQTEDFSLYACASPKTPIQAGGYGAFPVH

For `CS(=O)(=O)N1CCC(c2nc(-c3cccc(NS(=O)(=O)c4cc(F)ccc4F)c3F)c(-c3ccnc(N)n3)s2)CC1` [Example 101, N-(3-{5-(2-Amino-4-pyrimidinyl)-2-[1-(methylsulfonyl)-4-piperidinyl]-1,3-thiazol-4-yl}-2-fluorophenyl)-2,5-difluorobenzenesulfonamide], the IC50 was below 0.1 µM in assay [1] (setting [4]); at most 0.00316 µM in assay [1] (setting [5]); below 0.1 µM in assay [2] (setting [6]); below 0.1 µM in assay [2] (setting [7]); below 0.1 µM in assay [3] (setting [8]); below 0.1 µM in assay [3] (setting [9]).
Consider `Nc1nccc(-c2sc(N3CCS(=O)(=O)CC3)nc2-c2cccc(NS(=O)(=O)c3c(F)cccc3F)c2F)n1` [Example 102, N-{3-[5-(2-Amino-4-pyrimidinyl)-2-(1,1-dioxido-4-thiomorpholinyl)-1,3-thiazol-4-yl]-2-fluorophenyl}-2,6-difluorobenzenesulfonamide], for which the IC50 was below 0.1 µM in assay [1] (setting [4]); 0.00316 to 0.0316 µM in assay [1] (setting [10]); 0.1 to 1 µM in assay [2] (setting [6]); 0.1 to 1 µM in assay [2] (setting [7]); 0.1 to 1 µM in assay [3] (setting [8]); 0.1 to 1 µM in assay [3] (setting [9]).
With `C[C@@H]1CN(c2nc(-c3cccc(NS(=O)(=O)c4cc(F)ccc4F)c3F)c(-c3ccnc(N)n3)s2)C[C@H](C)O1` [Example 103, N-(3-{5-(2-Amino-4-pyrimidinyl)-2-[(2R,6S)-2,6-dimethyl-4-morpholinyl]-1,3-thiazol-4-yl}-2-fluorophenyl)-2,5-difluorobenzenesulfonamide], the IC50 is below 0.1 µM in assay [1] (setting [4]); at most 0.00316 µM in assay [1] (setting [5]); below 0.1 µM in assay [2] (setting [6]); below 0.1 µM in assay [2] (setting [7]); below 0.1 µM in assay [3] (setting [8]); below 0.1 µM in assay [3] (setting [9]).
For `Nc1nccc(-c2sc(C3CCCCC3)nc2-c2cccc(NS(=O)(=O)c3c(F)cccc3F)c2F)n1` [Example 104, N-{3-[5-(2-Amino-4-pyrimidinyl)-2-cyclohexyl-1,3-thiazol-4-yl]-2-fluorophenyl}-2,6-difluorobenzenesulfonamide], the IC50 in assay [1] (setting [4]) was below 0.1 µM; in assay [1] (setting [5]), at most 0.00316 µM; in assay [2] (setting [6]), below 0.1 µM; in assay [2] (setting [7]), below 0.1 µM; in assay [3] (setting [8]), below 0.1 µM; in assay [3] (setting [9]) it was below 0.1 µM.
As to `Nc1nccc(-c2sc(N3CCOCC3)nc2-c2c(F)ccc(NS(=O)(=O)c3cc(F)ccc3F)c2F)n1` [Example 105, N-{3-[5-(2-Amino-4-pyrimidinyl)-2-(4-morpholinyl)-1,3-thiazol-4-yl]-2,4-difluorophenyl}-2,5-difluorobenzenesulfonamide], the IC50 in assay [1] (setting [4]) was below 0.1 µM; in assay [1] (setting [5]) it was at most 0.00316 µM; in assay [2] (setting [6]), below 0.1 µM; in assay [2] (setting [7]) it was below 0.1 µM; in assay [3] (setting [8]), below 0.1 µM; in assay [3] (setting [9]) it was below 0.1 µM.
Turning to `Nc1nccc(-c2sc(N3CCOCC3)nc2-c2c(F)ccc(NS(=O)(=O)c3c(F)cccc3F)c2F)n1` [Example 106, N-{3-[5-(2-Amino-4-pyrimidinyl)-2-(4-morpholinyl)-1,3-thiazol-4-yl]-2,4-difluorophenyl}-2,6-difluorobenzenesulfonamide], the IC50 in assay [1] (setting [4]) is below 0.1 µM; in assay [1] (setting [10]) it was 0.00316 to 0.0316 µM; in assay [2] (setting [6]) it was 0.1 to 1 µM; in assay [2] (setting [7]) it was 0.1 to 1 µM; in assay [3] (setting [8]) it was 0.1 to 1 µM; in assay [3] (setting [9]), 0.1 to 1 µM.
For `CC(C)(C)c1nc(-c2c(F)ccc(NS(=O)(=O)c3c(F)cccc3F)c2F)c(-c2ccnc(N)n2)s1` [Example 107, N-{3-[5-(2-amino-4-pyrimidinyl)-2-(1,1-dimethylethyl)-1,3-thiazol-4-yl]-2,4-difluorophenyl}-2,6-difluorobenzenesulfonamide], the IC50 was below 0.1 µM in assay [1] (setting [4]); at most 0.00316 µM in assay [1] (setting [5]); below 0.1 µM in assay [2] (setting [6]); below 0.1 µM in assay [2] (setting [7]); below 0.1 µM in assay [3] (setting [8]); below 0.1 µM in assay [3] (setting [9]).
Turning to `Nc1nccc(-c2oc(N3CCCC3)nc2-c2cccc(NS(=O)(=O)c3c(F)cccc3F)c2)n1` [Example 110, N-{3-[5-(2-Amino-4-pyrimidinyl)-2-(1-pyrrolidinyl)-1,3-oxazol-4-yl]phenyl}-2,6-difluorobenzenesulfonamide], the IC50 is 0.1 to 1 µM in assay [1] (setting [4]), 0.0316 to 1 µM in assay [1] (setting [5]), 1 to 10 µM in assay [2] (setting [7]) and 1 to 10 µM in assay [3] (setting [9]).
Turning to `CC(C)CNc1nccc(-c2oc(N3CCCC3)nc2-c2cccc(NS(=O)(=O)c3c(F)cccc3F)c2)n1` [Example 111, 2,6-Difluoro-N-{3-[5-{2-[(2-methylpropyl)amino]-4-pyrimidinyl}-2-(1-pyrrolidinyl)-1,3-oxazol-4-yl]phenyl}benzenesulfonamide], the IC50 in assay [1] (setting [4]) is below 0.1 µM; in assay [1] (setting [5]) it was 0.0316 to 1 µM; in assay [2] (setting [7]), 1 to 10 µM; in assay [3] (setting [9]) it was 1 to 10 µM.
For `CC(C)CNc1nccc(-c2sc(N(C)C)nc2-c2cccc(NS(=O)(=O)c3c(F)cccc3F)c2)n1` [Example 113, N-[3-(2-(Dimethylamino)-5-{2-[(2-methylpropyl)amino]-4-pyrimidinyl}-1,3-thiazol-4-yl)phenyl]-2,6-difluorobenzenesulfonamide], the IC50 is below 0.1 µM in assay [1] (setting [4]), 0.0316 to 1 µM in assay [1] (setting [5]), 0.1 to 1 µM in assay [2] (setting [7]) and 0.1 to 1 µM in assay [3] (setting [9]).
As to `CC(C)CNc1nccc(-c2scnc2-c2cccc(NS(=O)(=O)c3c(F)cccc3F)c2)n1` [Example 115, 2,6-Difluoro-N-[3-(5-{2-[(2-methylpropyl)amino]-4-pyrimidinyl}-1,3-thiazol-4-yl)phenyl]benzenesulfonamide], the IC50 is above 1 µM in assay [1] (setting [4]); 0.00316 to 0.0316 µM in assay [1] (setting [10]); above 1 µM in assay [2] (setting [6]); 1 to 10 µM in assay [2] (setting [7]); above 1 µM in assay [3] (setting [8]); 1 to 10 µM in assay [3] (setting [9]).
Consider `Nc1nccc(-c2sc(C3CCC3)nc2-c2cccc(NS(=O)(=O)c3cc(F)ccc3F)c2F)n1` [Example 117], for which the IC50 is below 0.1 µM in assay [1] (setting [4]); at most 0.00316 µM in assay [1] (setting [5]); below 0.1 µM in assay [2] (setting [6]); below 0.1 µM in assay [2] (setting [7]); below 0.1 µM in assay [3] (setting [8]); below 0.1 µM in assay [3] (setting [9]).
Regarding `Nc1nccc(-c2sc(C3CCC3)nc2-c2cccc(NS(=O)(=O)c3c(F)cccc3F)c2F)n1` [Example 118], the IC50 is below 0.1 µM in assay [1] (setting [4]); at most 0.00316 µM in assay [1] (setting [5]); 0.1 to 1 µM in assay [2] (setting [6]); 0.1 to 1 µM in assay [2] (setting [7]); 0.1 to 1 µM in assay [3] (setting [8]); 0.1 to 1 µM in assay [3] (setting [9]).
As to `CNc1nccc(-c2sc(C(C)C)nc2-c2ccc(F)c(NS(=O)(=O)c3c(F)cccc3F)c2)n1` [Example 119], the IC50 in assay [1] (setting [4]) was 0.1 to 1 µM; in assay [1] (setting [5]), 0.0316 to 1 µM; in assay [2] (setting [6]) it was above 1 µM; in assay [3] (setting [8]), above 1 µM; in assay [3] (setting [9]), 1 to 10 µM.
Consider `CCCNc1nccc(-c2sc(C(C)C)nc2-c2ccc(F)c(NS(=O)(=O)c3cc(F)ccc3F)c2)n1` [Example 120], for which the IC50 in assay [1] (setting [4]) is below 0.1 µM; in assay [1] (setting [10]), 0.00316 to 0.0316 µM; in assay [2] (setting [6]), 0.1 to 1 µM; in assay [2] (setting [7]), 0.1 to 1 µM; in assay [3] (setting [8]), 0.1 to 1 µM; in assay [3] (setting [9]), 0.1 to 1 µM.
For `CC(C)CNc1nccc(-c2sc(C(C)C)nc2-c2ccc(F)c(NS(=O)(=O)c3cc(F)ccc3F)c2)n1` [Example 121], the IC50 in assay [1] (setting [4]) is below 0.1 µM; in assay [1] (setting [10]), 0.00316 to 0.0316 µM; in assay [2] (setting [6]), 0.1 to 1 µM; in assay [2] (setting [7]) it was 0.1 to 1 µM; in assay [3] (setting [8]), 0.1 to 1 µM; in assay [3] (setting [9]), 0.1 to 1 µM.
Regarding `CC(C)c1nc(-c2ccc(F)c(NS(=O)(=O)c3cc(F)ccc3F)c2)c(-c2ccnc(NC3CC3)n2)s1` [Example 122], the IC50 in assay [1] (setting [4]) was below 0.1 µM; in assay [1] (setting [5]), 0.0316 to 1 µM; in assay [2] (setting [6]), above 1 µM; in assay [2] (setting [7]), 1 to 10 µM; in assay [3] (setting [8]), above 1 µM; in assay [3] (setting [9]), 1 to 10 µM.
In the case of `CC(C)c1nc(-c2ccc(F)c(NS(=O)(=O)c3cc(F)ccc3F)c2)c(-c2ccnc(NC3CCN(C)CC3)n2)s1` [Example 123], the IC50 in assay [1] (setting [4]) is below 0.1 µM; in assay [1] (setting [5]), 0.0316 to 1 µM; in assay [2] (setting [6]) it was 0.1 to 1 µM; in assay [2] (setting [7]) it was 0.1 to 1 µM; in assay [3] (setting [8]), above 1 µM; in assay [3] (setting [9]), 1 to 10 µM.
For the molecule `CC(C)c1nc(-c2ccc(F)c(NS(=O)(=O)c3cc(F)ccc3F)c2)c(-c2ccnc(NC3CCN(C(=O)OC(C)(C)C)CC3)n2)s1` [Example 124], the IC50 in assay [1] (setting [4]) is below 0.1 µM; in assay [1] (setting [5]), 0.0316 to 1 µM; in assay [2] (setting [6]) it was 0.1 to 1 µM; in assay [2] (setting [7]) it was 0.1 to 1 µM; in assay [3] (setting [8]), 0.1 to 1 µM; in assay [3] (setting [9]) it was 0.1 to 1 µM.
Consider `CC(C)c1nc(-c2ccc(F)c(NS(=O)(=O)c3cc(F)ccc3F)c2)c(-c2ccnc(NC3CCNCC3)n2)s1` [Example 125], for which the IC50 in assay [1] (setting [4]) was below 0.1 µM; in assay [1] (setting [10]) it was 0.00316 to 0.0316 µM; in assay [2] (setting [6]) it was 0.1 to 1 µM; in assay [2] (setting [7]), 0.1 to 1 µM; in assay [3] (setting [8]), 0.1 to 1 µM; in assay [3] (setting [9]), 0.1 to 1 µM.
As for `CC(C)c1nc(-c2ccc(F)c(NS(=O)(=O)c3cc(F)ccc3F)c2)c(-c2ccnc(NC3CCN(CCS(C)(=O)=O)CC3)n2)s1` [Example 126], the IC50 was below 0.1 µM in assay [1] (setting [4]); 0.0316 to 1 µM in assay [1] (setting [5]); 0.1 to 1 µM in assay [2] (setting [6]); 0.1 to 1 µM in assay [2] (setting [7]); 0.1 to 1 µM in assay [3] (setting [8]); 0.1 to 1 µM in assay [3] (setting [9]).
